Measurements: ChEMBL document CHEMBL1201862, “PubChem BioAssay data set” (2004)
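Each compound was tested at five concentrations against cells in 96-well plates for 48 hours. The concentration for 50% growth inhibition is given as GI50.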 Active and inactive are the calls of the source. Cut-off read from the data, not from the text of the source: active = GI50 up to about 1.1 µM and inactive = higher.

Columns and labels:
Assay in all cases: growth of human tumour cells (NCI), 48 h
NCI-H460 = test system: NCI-H460
HCC 2998 = test system: HCC 2998
OVCAR-5 = test system: OVCAR-5
LOX IMVI = test system: LOX IMVI
EKVX = test system: EKVX
SK-OV-3 = test system: SK-OV-3
NCI-H522 = test system: NCI-H522
OVCAR-8 = test system: OVCAR-8
M19-MEL = test system: M19-MEL
RPMI-8226 = test system: RPMI-8226
NCI-H226 = test system: NCI-H226
TK-10 = test system: TK-10
LXFL 529 = test system: LXFL 529
SW-620 = test system: SW-620
HCT-116 = test system: HCT-116
IGROV-1 = test system: IGROV-1
XF498 = test system: XF498
MOLT-4 = test system: MOLT-4
786-0 = test system: 786-0
M14 = test system: M14
K562 = test system: K562
CAKI-1 = test system: CAKI-1
A549 = test system: A549
UO-31 = test system: UO-31
DMS-273 = test system: DMS-273
RXF 393 = test system: RXF 393
DLD-1 = test system: DLD-1
UACC-62 = test system: UACC-62
SK-MEL-28 = test system: SK-MEL-28
SF-295 = test system: SF-295
ACHN = test system: ACHN
OVCAR-3 = test system: OVCAR-3
KM12 = test system: KM12
KM-20L2 = test system: KM-20L2
SR = test system: SR
U-251 = test system: U-251
HL-60 = test system: HL-60
HCT-15 = test system: HCT-15
SF-268 = test system: SF-268
SK-MEL-2 = test system: SK-MEL-2
SN12C = test system: SN12C
CCRF-CEM = test system: CCRF-CEM
NCI-H23 = test system: NCI-H23
COLO 205 = test system: COLO 205
SNB-75 = test system: SNB-75
HOP-92 = test system: HOP-92
SF-539 = test system: SF-539
SK-MEL-5 = test system: SK-MEL-5
HT-29 = test system: HT-29
SNB-19 = test system: SNB-19
HOP-62 = test system: HOP-62
Malme-3M = test system: Malme-3M
UACC-257 = test system: UACC-257
A498 = test system: A498
SNB-78 = test system: SNB-78
DMS-114 = test system: DMS-114
NCI/ADR-RES = test system: NCI/ADR-RES
MCF7 = test system: MCF7
OVCAR-4 = test system: OVCAR-4

Measured: GI50

COc1cc2c(c(OC)c1OC)-c1ccc(SC)c(=O)cc1[C@@H](NCc1ccc([N+](=O)[O-])cc1)CC2
4.88 nM: HCT-15
active: NCI-H460 3.18 nM | HCC 2998 2.99 nM | OVCAR-5 7.4 nM | LOX IMVI 5.06 nM | EKVX 7.4 nM | SK-OV-3 3.15 nM | NCI-H522 3.13 nM | OVCAR-8 5.78 nM | M19-MEL 3.79 nM | RPMI-8226 3.49 nM | NCI-H226 2.84 nM | TK-10 42.3 nM | LXFL 529 6.35 nM | SW-620 3.42 nM | HCT-116 3.69 nM | IGROV-1 37.1 nM | XF498 8.99 nM | MOLT-4 4.78 nM | 786-0 6.24 nM | M14 4.04 nM | K562 3.18 nM | CAKI-1 10 nM | A549 7.48 nM | UO-31 406 nM | DMS-273 2.88 nM | RXF 393 2.41 nM | DLD-1 4.02 nM | UACC-62 3.45 nM | SK-MEL-28 4.93 nM | SF-295 3.64 nM | ACHN 9.59 nM | OVCAR-3 3 nM | KM12 3.4 nM | KM-20L2 1.58 nM | SR 1.48 nM | U-251 4.16 nM | HL-60 2.02 nM | SF-268 6.76 nM | SK-MEL-2 11.3 nM | SN12C 7.38 nM | CCRF-CEM 2.77 nM | NCI-H23 3.24 nM | COLO 205 3.96 nM | SNB-75 3.54 nM | HOP-92 47.2 nM | SF-539 2.71 nM | SK-MEL-5 4.21 nM | HT-29 3.31 nM | SNB-19 30.8 nM | HOP-62 7.41 nM | Malme-3M 5.83 nM | UACC-257 5.16 nM | A498 4.61 nM | SNB-78 9.04 nM | DMS-114 2.53 nM

Cc1cc(-c2ccc(/N=N/c3ccc4c(S(=O)(=O)O)cc(S(=O)(=O)O)c(N)c4c3O)c(C)c2)ccc1/N=N/c1ccc2c(S(=O)(=O)O)cc(S(=O)(=O)O)c(N)c2c1O [EVANS BLUE FREE ACID]
inactive: NCI-H460 > 100000 nM | HCC 2998 > 100000 nM | OVCAR-5 > 100000 nM | NCI/ADR-RES > 100000 nM | EKVX > 100000 nM | SK-OV-3 > 100000 nM | NCI-H522 > 100000 nM | OVCAR-8 > 100000 nM | M19-MEL > 100000 nM | NCI-H226 > 76200 nM | SW-620 > 100000 nM | XF498 > 77300 nM | K562 > 100000 nM | A549 > 100000 nM | MCF7 > 100000 nM | UO-31 62700 nM | DMS-273 > 100000 nM | RXF 393 > 95500 nM | SK-MEL-28 > 100000 nM | SF-295 > 100000 nM | OVCAR-3 > 100000 nM | KM-20L2 > 100000 nM | U-251 > 100000 nM | HL-60 > 100000 nM | SF-268 > 100000 nM | OVCAR-4 59200 nM | SK-MEL-2 > 100000 nM | SN12C > 100000 nM | NCI-H23 > 100000 nM | SNB-75 77300 nM | SF-539 > 100000 nM | HT-29 > 100000 nM | UACC-257 > 100000 nM | A498 > 100000 nM | SNB-78 > 85700 nM
> 100000 nM: HCT-15
